Results reported in patent US8124617B2, “Imidazopyridine compounds” (Takeda San Diego, Inc., priority 2005, dated 2012).

Key:
[1] = biological target: T1, GST-hLGK1 (human hepatic GK) (Homo sapiens, UniProt P35557); test: Measurement of GK activation value (Mant-ATP/Mant-ADP capillary electrophoresis, reaction rate); format: biochemical; conditions: concentration necessary for activation of 50% of the maximum activity value; 37° C., 60 min
T1 construct: made in house; host or cells: Escherichia coli BL21 (pGEX6P-2/hLGK1)
T1 sequence (P35557 1-464 isoform P35557-3): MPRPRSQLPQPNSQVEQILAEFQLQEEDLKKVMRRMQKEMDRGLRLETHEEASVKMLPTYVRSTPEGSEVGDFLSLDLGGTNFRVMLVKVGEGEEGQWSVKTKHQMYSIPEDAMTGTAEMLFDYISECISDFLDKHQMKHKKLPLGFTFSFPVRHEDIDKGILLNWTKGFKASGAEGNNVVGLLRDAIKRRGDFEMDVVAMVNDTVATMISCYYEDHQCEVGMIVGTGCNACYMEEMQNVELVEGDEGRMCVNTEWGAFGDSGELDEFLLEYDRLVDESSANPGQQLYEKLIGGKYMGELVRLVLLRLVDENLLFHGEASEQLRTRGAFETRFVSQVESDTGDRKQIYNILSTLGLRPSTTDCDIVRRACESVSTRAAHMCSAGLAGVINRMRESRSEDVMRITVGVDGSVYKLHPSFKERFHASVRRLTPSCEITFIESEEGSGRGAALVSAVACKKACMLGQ
Method: A plasmid DNA for expression of protein (GST-hLGK1) containing GST (Glutathione S-transferase) added to human hepatic GK amino terminal in Escherichia coli was prepared as follows.
BL21 strain (Stratagene) transformed with pGEX6P-2/hLGK1 obtained in Reference Example 1A was cultured with shaking in a 200 ml Erlenmeyer flask containing a 100 μg/ml ampicillin-containing LB medium (50 ml) at 37° C. for 14 hr. The culture medium (25 ml) was diluted with 100 μg/ml ampicillin-containing LB medium (225 ml), and further cultured with shaking in a 1 L Erlenmeyer flask at 37° C. for 1 hr. After cooling on ice the Erlenmeyer flask after culture, 100 mM Isopropyl-Thio-β-D-Galactopyranoside (IPTG) (125 μL) was added (final concentration 50 μM), and the mixture was cultured at 17° C. for 20 hr. After centrifugation of the culture medium, the obtained cells were ultrasonicated, and the object protein (GST-hLGK1) was purified from the supernatant using Glutathione Sepharose 4B (Amersham Biosciences).
A 50% solution (5 μL) of the test compound in dimethyl sulfoxide was added to each well of a 384 well black plate (Nalge Nunc). Then, 35 μL of a liquid obtained by diluting GST-hLGK1 obtained in Reference Example 2A with a measurement buffer (50 mM HEPES (pH 7.4), containing 200 mM KCl, 5 mM MgCl2, 2.5 mM DTT and 50 μM 2′-(or-3′)-O—(N-methylanthraniloyl)adenosine 5′-triphosphate (Mant-ATP) (Jena Bioscience)) was added to each well to 6 μg/mL.
Each well was stood at 37° C. for 10 min, and a 25 mM D-glucose solution (10 μL) was added to start the reaction.
Each well after the start of the reaction was stood at 37° C. for 60 min, and the reaction was quenched by adding 25 μL of a reaction quenching solution (200 mM HEPES (pH 7.4), containing 20 mM MgCl2, 200 mM EDTA, 0.03% Triton-X 100, 0.3% Coating 3 reagent (Caliper Life Sciences)).
Mant-ATP (substrate) and Mant-ADP (reaction resultant product) were separated from each well after quenching the reaction, with a microchip type capillary electrophoresis apparatus 250HTS (Caliper Life Sciences). The reaction rate [(peak height of reaction resultant product)/(peak height of reaction resultant product+peak height of substrate)×100(%)] was calculated from the ratio of the substrate peak height and the reaction resultant product peak height, which were obtained by fluorescence detection (excitation wavelength 355 nm, measurement wavelength 460 nm), and used as an index of the GK activity.
For the control, the reaction rate was calculated in the same manner as in the above except that “50% dimethyl sulfoxide solution” was used instead of the “50% solution of the test compound in dimethyl sulfoxide”.
A percentage obtained by dividing the reaction rate of the well added with the test compound (test compound addition group) by the reaction rate of the well added with a 50% dimethyl sulfoxide solution alone (control group) was taken as the GK activation value by the test compound, and the concentration of the test compound necessary for the activation of 50% of the maximum activity value is shown as an EC50 value.

SMILES	EC50 [1]	melting point
COc1ccc(-c2cnc3[nH]c(-c4cc(OCc5ccccc5)ccc4OC(C)C)nc3c2)c(OC)c1 [Example 45, 2-[5-(benzyloxy)-2-isopropoxyphenyl]-6-(2,4-dimethoxyphenyl)-3H-imidazo[4,5-b]pyridine]	280 nM	–
Cc1ccccc1-c1cnc2[nH]c(-c3cc(OCc4ccccc4)ccc3OC(C)C)nc2c1 [Example 47, 2-[5-(benzyloxy)-2-isopropoxyphenyl]-6-(2-methylphenyl)-3H-imidazo[4,5-b]pyridine]	400 nM	–
COc1ccccc1-c1cnc2[nH]c(-c3cc(OCc4ccccc4)ccc3OC(C)C)nc2c1 [Example 48, 2-[5-(benzyloxy)-2-isopropoxyphenyl]-6-(2-methoxyphenyl)-3H-imidazo[4,5-b]pyridine]	240 nM	–
CC(C)Oc1cc(OCc2ccccc2)ccc1-c1nc2cc(-c3ccc(F)cc3)cnc2[nH]1 [Example 50, 2-[4-(benzyloxy)-2-isopropoxyphenyl]-6-(4-fluorophenyl)-3H-imidazo[4,5-b]pyridine]	290 nM	–
COc1ccc(-c2cnc3[nH]c(-c4ccc(OCc5ccccc5)cc4OC(C)C)nc3c2)cc1 [Example 51, 2-[4-(benzyloxy)-2-isopropoxyphenyl]-6-(4-methoxyphenyl)-3H-imidazo[4,5-b]pyridine]	250 nM	–
CC(C)Oc1cc(OCc2ccccc2)ccc1-c1nc2cc(-c3ccccc3F)cnc2[nH]1 [Example 72, 2-[4-(benzyloxy)-2-isopropoxyphenyl]-6-(2-fluorophenyl)-3H-imidazo[4,5-b]pyridine]	200 nM	–
CCOC(=O)c1cnc2[nH]c(-c3cc(OCc4ccccc4)ccc3OC(C)C)nc2c1 [Example 74, ethyl 2-[5-(benzyloxy)-2-isopropoxyphenyl]-3H-imidazo[4,5-b]pyridine-6-carboxylate]	–	138 to 140 °C
CC(C)CNCc1cnc2[nH]c(-c3cc(OCc4ccccc4)ccc3OC(C)C)nc2c1 [Example 78, N-({2-[5-(benzyloxy)-2-isopropoxyphenyl]-3H-imidazo[4,5-b]pyridin-6-yl}methyl)-2-methylpropan-1-amine]	–	101 to 103 °C
CC(C)Oc1ccc(OCc2ccccc2)cc1-c1nc2cc(CNCc3ccccc3)cnc2[nH]1 [Example 79, N-benzyl-1-{2-[5-(benzyloxy)-2-isopropoxyphenyl]-3H-imidazo[4,5-b]pyridin-6-yl}methaneamine]	–	92 to 94 °C
COC(=O)CNCc1cnc2[nH]c(-c3cc(OCc4ccccc4)ccc3OC(C)C)nc2c1 [Example 82, methyl N-({2-[5-(benzyloxy)-2-isopropoxyphenyl]-3H-imidazo[4,5-b]pyridin-6-yl}methyl)glycinate]	3700 nM	69 to 71 °C
CC(C)Oc1ccc(OCc2ccccc2)cc1-c1nc2ccc(C#N)nc2[nH]1 [Example 84, 2-[5-(benzyloxy)-2-isopropoxyphenyl]-3H-imidazo[4,5-b]pyridine-5-carbonitrile]	–	214 to 215 °C
CC(C)Oc1ccc(OCc2ccccc2)cc1-c1nc2ccc(CO)nc2[nH]1 [Example 87, {2-[5-(benzyloxy)-2-isopropoxyphenyl]-3H-imidazo[4,5-b]pyridin-5-yl}methanol]	–	167 to 168 °C

Second part, the compound after the results:

EC50 [1]	melting point	SMILES
130 nM	136 to 137 °C	CC(C)Oc1cc(OCc2ccccc2)cc(-c2nc3cccnc3[nH]2)c1 [Example 2, 2-[3-(benzyloxy)-5-isopropoxyphenyl]-3H-imidazo[4,5-b]pyridine]
150 nM	82 to 83 °C	CC(C)Oc1cc(OCCc2ccsc2)cc(-c2nc3cccnc3[nH]2)c1 [Example 3, 2-{3-isopropoxy-5-[2-(3-thienyl)ethoxy]phenyl}-3H-imidazo[4,5-b]pyridine]
1600 nM	110 to 112 °C	CC(C)Oc1cc(OCCCc2cccnc2)cc(-c2nc3cccnc3[nH]2)c1 [Example 4, 2-[3-isopropoxy-5-(3-pyridin-3-ylpropoxy)phenyl]-3H-imidazo[4,5-b]pyridine]
2100 nM	–	COc1ccc(OCc2ccccc2)cc1-c1nc2cccnc2[nH]1 [Example 5, 2-(5-(benzyloxy)-2-methoxyphenyl)-3H-imidazo[4,5-b]pyridine]
440 nM	–	CC(C)Oc1ccc(OCc2ccccc2)cc1-c1nc2cc(-c3cccnc3)cnc2[nH]1 [Example 40, 2-[5-(benzyloxy)-2-isopropoxyphenyl]-6-pyridin-3-yl-3H-imidazo[4,5-b]pyridine]
1100 nM	–	CC(C)Oc1cc(OCc2ccccc2)cc(-c2nc3cc(-c4cccnc4)cnc3[nH]2)c1 [Example 61, 2-[3-(benzyloxy)-5-isopropoxyphenyl]-6-pyridin-3-yl-3H-imidazo[4,5-b]pyridine]
150 nM	–	CC(C)Oc1cc(OCc2ccccc2)ccc1-c1nc2cc(-c3cccc(F)c3)cnc2[nH]1 [Example 73, 2-[4-(benzyloxy)-2-isopropoxyphenyl]-6-(3-fluorophenyl)-3H-imidazo[4,5-b]pyridine]
730 nM	167 to 168 °C	CC(C)Oc1ccc(OCc2ccccc2)cc1-c1nc2cc(CO)cnc2[nH]1 [Example 76, {2-[5-(benzyloxy)-2-isopropoxyphenyl]-3H-imidazo[4,5-b]pyridin-6-yl}methanol]
–	170 to 171 °C	CC(C)Oc1ccc(OCc2ccccc2)cc1-c1nc2cc(C=O)cnc2[nH]1 [Example 77, 2-[5-(benzyloxy)-2-isopropoxyphenyl]-3H-imidazo[4,5-b]pyridine-6-carbaldehyde]
820 nM	67 to 68 °C	CC(C)Oc1ccc(OCc2ccccc2)cc1-c1nc2cc(CNCCOc3ccccc3)cnc2[nH]1 [Example 80, N-({2-[5-(benzyloxy)-2-isopropoxyphenyl]-3H-imidazo[4,5-b]pyridin-6-yl}methyl)-2-phenoxyethaneamine]
–	80 to 81 °C	COCCNCc1cnc2[nH]c(-c3cc(OCc4ccccc4)ccc3OC(C)C)nc2c1 [Example 81, N-({2-[5-(benzyloxy)-2-isopropoxyphenyl]-3H-imidazo[4,5-b]pyridin-6-yl}methyl)-2-methoxyethaneamine]
–	182 to 184 °C	CC(C)Oc1ccc(OCc2ccccc2)cc1-c1nc2cc(CNCC(=O)O)cnc2[nH]1 [Example 83, N-({2-[5-(benzyloxy)-2-isopropoxyphenyl]-3H-imidazo[4,5-b]pyridin-6-yl}methyl)glycine]
